The assay concerns swine growth hormone secretagogue receptor (GHSR) Type I, clone 7-3, expressed transiently in COS-7 cells. The experiment in a line: 35S-labeled Compound A binding assay on crude membranes of transfected COS-7 cells.

Bounds are passed on as bounds.

Consider `CC(C)(N)C(=O)N[C@H](COCc1ccccc1)C(=O)N1CCC2(CC1)CN(S(C)(=O)=O)c1ccccc12` [Compound A], for which the specific binding displaced (displacement of ^35S-Compound A binding by 50 nM unlabeled Compound A, 60 min) is given as more than 90%. For `CC(C)(N)C(=O)N[C@H](COCc1ccccc1)C(=O)N1CCC2(CC1)CN(S(C)(=O)=O)c1ccccc12` [^35S-Compound A], the Kd (saturation binding of ^35S-Compound A, clone 7-3 expressed transiently in COS-7 cells, 20°C, 1 hr) was approximately 0.2 nM.

The term Kd denotes the equilibrium constant for the complex coming apart. The low end stands for higher affinity, the high end for lower affinity.
